Source: PubChem BioAssay (NCI)
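Each compound was tested at five concentrations against cells in 96-well plates for 48 hours. GI50 = concentration required for 50% inhibition of growth. TGI denotes the concentration required for complete inhibition of growth.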

Key:
Assay in all cases: inhibition of tumour cell growth, NCI panel, 48 h
[1] = test system: COLO 205 colon
[2] = test system: HOP-92 NSCLC
[3] = test system: KM12 colon
[4] = test system: OVCAR-5 ovarian
[5] = test system: SN12C renal
[6] = test system: U251 CNS
[7] = test system: UACC-257 melanoma
[8] = test system: A498 renal
[9] = test system: NCI-H522 lung

Row | Compound | TGI [1] [µM] | TGI [2] [µM] | TGI [3] [µM] | TGI [4] [µM] | TGI [5] [µM] | TGI [6] [µM] | TGI [7] [µM] | TGI [8] [µM] | TGI [9] [µM] | GI50 [8] [µM] | GI50 [1] [µM] | GI50 [3] [µM] | GI50 [9] [µM] | GI50 [4] [µM] | GI50 [5] [µM] | GI50 [6] [µM] | GI50 [7] [µM]
1 | O=c1[nH]c(C2CCCCC2)nc2ccc(Cl)cc12 | > 100 | > 100 | > 100 | > 100 | > 100 | > 100 | > 100 | – | – | – | – | – | – | – | – | – | –
2 | Cc1c2cc[n+](C)cc2c(C)c2c1[nH]c1ccc(OC(C)(C)C)cc12 | > 100 | > 100 | > 100 | > 100 | > 100 | > 100 | > 100 | > 100 | > 100 | – | – | – | – | – | – | – | –
3 | COc1ccc(C2[C@@H](Cl)C(=O)N2c2ccc(OC)cc2)cc1 (stereo not given in full) | > 100 | 39.5 | > 100 | > 100 | > 100 | > 100 | > 100 | > 100 | > 100 | – | – | – | – | – | – | – | –
4 | CS(=O)(=O)Nc1cc(-c2ccc3ncnc(Nc4ccc(OCc5ccccn5)c(Cl)c4)c3c2)cnc1Cl | 1.85 | – | 2.18 | 4.58 | > 100 | 2.31 | 7.1 | 0.641 | 2.35 | 0.155 | 0.316 | 0.572 | 0.131 | 0.325 | 0.35 | 0.316 | 0.378
5 | COC(=O)/C(=C1\OC(=O)C(c2ccc(Cl)cc2)=C1O)c1ccc(Cl)cc1 | 45 | 50.4 | 67.8 | 79.5 | > 100 | > 100 | 48.8 | 47.8 | 50.4 | – | – | – | – | – | – | – | –
6 | CC1=NN(c2ccccc2)C(=O)C1N=Nc1ccc(Br)cc1C (stereo not given) | > 100 | > 100 | > 100 | > 100 | > 100 | > 100 | > 100 | > 100 | – | – | – | – | – | – | – | – | –
7 | Cc1ccccc1C1SCc2nc3ccccc3n21 (stereo not given) | > 100 | 49.5 | > 100 | > 100 | > 100 | > 100 | > 100 | – | > 100 | – | – | – | – | – | – | – | –
8 | OCC1OC(NO)C(O)C(O)C1O (stereo not given) | > 100 | > 100 | > 100 | > 100 | > 100 | > 100 | > 100 | > 100 | > 100 | – | – | – | – | – | – | – | –
9 | CC1O[C@@H]2CCCCC(=O)[C@]2(C)[C@H]1C (stereo not given in full) | > 100 | > 100 | > 100 | > 100 | > 100 | > 100 | > 100 | – | – | – | – | – | – | – | – | – | –
10 | O=S1c2ccccc2N=C(c2cccs2)CC1c1ccccc1O (stereo not given) | > 100 | – | > 100 | > 100 | > 100 | – | > 100 | 99.8 | > 100 | – | – | – | – | – | – | – | –
11 | CCn1c(C)nc([N+](=O)[O-])c1Sc1ncc[nH]1 | > 100 | > 100 | > 100 | > 100 | > 100 | > 100 | > 100 | > 100 | 38.1 | – | – | – | – | – | – | – | –
12 | O=S1(=O)CC#CC[C@@H](CO)[C@@H](CO)CC#CC1 | – | 90.3 | > 100 | > 100 | > 100 | > 100 | > 100 | – | 32.6 | – | – | – | – | – | – | – | –
13 | O=S(=O)(O)c1ccc([Se][Se]c2ccc(S(=O)(=O)O)cc2)cc1 | > 100 | > 100 | > 100 | > 100 | > 100 | > 100 | > 100 | > 100 | > 100 | – | – | – | – | – | – | – | –
14 | Cc1cc(NCCCCCCCCNc2cc(C)nc3cc(N(C)C)ccc23)c2ccc(N(C)C)cc2n1 | 5.5 | 8.04 | 19.6 | – | 21.5 | 9.45 | 23.1 | 42.6 | 12.9 | – | – | – | – | – | – | – | –
15 | COc1ccc(NC(=O)CC2SC(=Nc3ccc(Cl)cc3C)NC2=O)c([N+](=O)[O-])c1 (stereo not given) | – | > 100 | – | > 100 | > 100 | > 100 | > 100 | > 100 | > 100 | – | – | – | – | – | – | – | –
16 | Oc1ccccc1-c1cnnc(-c2ccccc2O)c1 | 41.7 | 49.9 | – | 61.8 | > 100 | – | 53.5 | – | 41.3 | – | – | – | – | – | – | – | –
17 | O=C(NNC(=O)/C(=C/c1cccc([N+](=O)[O-])c1)NC(=O)c1ccccc1)Nc1ccc(Cl)cc1 | 26.8 | 40.4 | 24.7 | 32.4 | 28.2 | 28.4 | 34.4 | 23.4 | 25.7 | – | – | – | – | – | – | – | –
18 | C/C(COc1ccccc1)=N\NC(N)=S | > 100 | > 100 | > 100 | > 100 | > 100 | > 100 | > 100 | > 100 | – | – | – | – | – | – | – | – | –
19 | O=C1/C(=C/c2ccc(C(=O)O)cc2)CNC/C1=C\c1ccc(C(=O)O)cc1 | > 100 | > 100 | > 100 | > 100 | > 100 | > 100 | > 100 | > 100 | – | – | – | – | – | – | – | – | –
